System: HL-1 cells
Experiment: HL-1 cell growth and proliferation
Assay type: cell-based, murine
Conditions: compared to HL-1 cells incubated with vehicle, FIG. 10
Procedure: HL-1 cells are obtained from Dr. W. C. Claycomb, Louisiana State University Medical Center, New Orleans, La. HL-1 cells (passages 55-75) are maintained at 37° C. under a 5% C02/air atmosphere in Claycomb medium (JRL Bioscience) supplemented with 10% fetal bovine serum, 0.29 mg/mL L-glutamine, 100 units/mL penicillin, 100 μg/mL streptomycin (all Gibco), and 0.1 mM norepinephrine (Sigma). The medium can be replaced approximately every 24 hours. HL-1 cells were grown in T25 culture flasks which were precoated overnight with 2 μg/cm fibronectin/0.02% gelatin solution. […]
HL-1 cells are grown in 10% FCS-supplemented medium or medium supplemented with 1% ITS and treated with either 0.1% EtOH (control vehicle), 1, 10 or 100 nM 1,25(OH) 2D3, 100 nM PMA or 1 mM PMA or 1 mM 24,25(OH) 2D3 or 25(OH)D3 for 2 or 4 days. At each time point the myocytes are removed from the dish using a Trypsin-EDTA solution (Sigma Chemical, St. Louis, Mo.) and counted using a Coulter Counter (Model ZF, Coulter Electronics, Hialeah, Fla.). Protein levels can be determined after 2 days using the Bradford protein assay (14). […] The HL-1 cells can then be examined on a flow cytometer (Coulter Elite, Coulter Electronics, Hialeah, Fla.) and cell cycle distribution can be determined by using MODFIT (v. 5.2).

C=C1CC[C@H](O)C/C1=C/C=C1\CCC[C@]2(C)[C@@H]([C@H](C)CCCC(C)C)CC[C@@H]12 [Vitamin D3]
inhibition of HL-1 growth / cellular proliferation: dose dependent inhibition of cellular proliferation | inhibition of HL-1 growth / cellular proliferation (listed as Vit D): dose dependent inhibition of HL-1 growth

Reference: patent publication US20100190187A1, “Screening Assays for Antagonists and Analyses of Cardiac Hypertrophy” (The Regents of the University of Michigan Office of …, priority 2006, published 2010)
